Laboratory results reported in patent US20100291236A1, “OSMIUM COMPOUNDS” (THE UNIVERSITY OF WARWICK, priority 2006, published 2010).
Entries after “also recorded” stand apart in the source; their conditions may differ. Read-outs that look alike come from different tables or passages of the source.

What was measured:
[1] = tested on: human ovarian A2780 cancer cells; test: Cytotoxicity towards A2780 cells, sulforhodamine B (SRB) assay; assay type: cell-based
Description: (§1) Experimental: Cytotoxicity Towards A2780 and A549 Human Cancer Cells. After plating, human ovarian A2780 cancer cells were treated with Os^II complexes on day 3, and human lung A549 cancer cells on day 2, at concentrations ranging from 2 μM to 50 μM. Solutions of the Os^II complexes were made up in 0.125% DMSO to assist dissolution. Cells were exposed to the complexes for 24 h, washed, supplied with fresh medium, allowed to grow for three doubling times (72 h), and then the protein content measured (proportional to cell survival) using the sulforhodamine B (SRB) assay.
(§2) Cancer Cell Cytotoxicity. After plating, human ovarian A2780 cancer cells were treated with OsII complexes on day 3, and human lung A549 cancer cells on day 2, at concentrations ranging from 0.1 μM to 100 μM. Solutions of the OsII complexes were made up in 0.125% DMSO to assist dissolution. Cells were exposed to the complexes for 24 h, washed, supplied with fresh medium, allowed to grow for three doubling times (72 h), and then the protein content measured (proportional to cell survival) using the sulforhodamine B (SRB) assay.10

[2] = Acidity (pKa / pKa*) of coordinated water, 1H NMR pH* titration
Source text: pKa* calculations. […] The chemical shifts of the arene ring protons were plotted against pH*. The pH* titration curves were fitted to the Henderson-Hasselbalch equation, with the assumption that the observed chemical shifts are weighted averages according to the populations of the protonated and deprotonated species.

[3] = tested on: human lung A549 cancer cells; test: Cytotoxicity towards A549 cells, sulforhodamine B (SRB) assay; assay type: cell-based
Description: as §1, §2

[4] = Hydrolysis (aquation) kinetics followed by 1H NMR; assay type: physicochemical
Description: Hydrolysis. […] The rate of hydrolysis was determined by fitting plots of concentrations (determined by ^1H NMR peak integrals) versus time to a pseudo first-order equation using ORIGIN version 5.0 (Microcal Software Ltd.).

[5] = Effect of chloride concentration on aqua adduct formation; assay type: physicochemical; details: 1 mM complex in D2O, t = 10 min
Source text: The effects of chloride levels on the distribution of AFAP42 (“prodrug”) and its aqua analogue (“active species”) were investigated. […] Results are summarised in table 6, showing how the hydrolysis of AFAP42 is suppressed in solutions with chloride concentrations similar to those found in blood plasma. At chloride concentrations typical of the cells cytoplasm, complex AFAP42 hydrolyses to some extent and at chloride concentrations typical of the nucleus (where the proposed target, DNA, can be found), the complex is present predominantly as the “active species” the aqua complex.
The effects of chloride concentrations typical of blood plasma (100 mM), cell cytoplasm (22.7 mM) and cell nucleus (4 mM) on the aqueous chemistry of 3 and 6 were investigated. ^1H NMR spectra of 3 or 6 (1 mM) were recorded within 10 min of sample preparation and after incubation at 310 K for 24 h.

[6] = tested on: 9-ethyl guanine (9EtG); test: Reaction with nucleobase model 9-ethyl guanine, 1H NMR; assay type: binding; details: for % 9EtG nucleobase adduct: 1 mM complex, 1 mol equivalent 9EtG, D2O; for binding to 9EtG (nucleobase adduct formation): time not given; for +1 eq. 9-EtG (% adduct formation): pH* close to 7.4, 298 K
Description: (§3) Since DNA is believed to be the main target for metal anticancer drugs, nucleobase binding reactions of compounds 3-6, with nucleobase models, 9-ethyl guanine (9EtG) and 9-ethyl adenine (9EtA), were investigated.
(§4) Solutions of 3-6 (1 mM) (present as an equilibrium between 3-6 and their respective aqua adducts as the major species) with 1 mol equivalent of 9EtG (Table 14) or 9EtA (Table 15) in D2O were prepared and ^1H NMR spectra were taken at different time intervals.
(§5) Interactions with Nucleobases. The reaction of compounds 8-12 with nucleobases typically involved addition of a solution containing 1 mol equiv of nucleobase in D2O, to an equilibrium solution of compounds 8-12 in D2O (>90% aqua). The pH* value of the sample was adjusted if necessary so as to remain close to 7.4 (physiological). ^1H NMR spectra of these solutions were recorded at 298 K after various time intervals.

[7] = tested on: 9-ethyl adenine (9EtA); test: Reaction with nucleobase model 9-ethyl adenine, 1H NMR; assay type: binding; details: for % 9EtA nucleobase adduct: 1 mM complex, 1 mol equivalent 9EtA, D2O; for binding to 9EtA (nucleobase adduct formation): time not given; for +1 eq. 9-EtA (% adduct formation): pH* close to 7.4, 298 K
Description: as §3, §4, §5

[8] = Effect of chloride concentration on aqua adduct formation; assay type: physicochemical; details: 1 mM complex in D2O, t = 26 h
[9] = Table 7, 24 h exposure, 72 h growth, 2-50 μM, read-out: IC50/μM A2780
[10] = Table 7, 24 h exposure, 72 h growth, 2-50 μM, read-out: IC50/μM A549
[11] = Table 19, read-out: IC50 (μM) in A2780
[12] = 298 K, 5% MeOD-d4/95% D2O, pH* 2
[13] = Table 8, compounds 1-6, read-out: A2780 IC50
[14] = Table 8, compounds 1-6, read-out: A549 IC50
[15] = 288 K, 5% MeOD-d4/95% D2O, pH* 2

## CC(=O)C=C(C)[O][Os][Cl].Cc1ccc(C(C)C)cc1 [AFAP29]
[1]; [9]
  IC50: > 100 µM
[2]
  pKa of water coordinated on hydrolysis (aqua adduct of complex): 7.63
[3]; [10]
  IC50: > 100 µM

## C1=CCC2=C(C1)Cc1ccccc1C2.F[B-](F)(F)F.NCCN.[Cl][Os+] [AFAP65, [(η^6-THA)Os(en)Cl]BF4]
[1]; [9]
  IC50: 9.4 µM
[2]
  pKa of water coordinated on hydrolysis (aqua adduct of complex): 6.33
[3]; [10]
  IC50: 6.4 µM

## [NH2][Pt]([NH2])([Cl])[Cl] [CDDP, cisplatin, reference compound]
[1]; [11]
  IC50: ~0.5 µM

## O=C([O][Os][Cl])c1cccc(Br)n1.c1ccc(-c2ccccc2)cc1 [Compound 1, [(η^6-bip)Os(6-Br-pico)Cl]]
[4]; [12]
  Hydrolysis k/h^−1: 0.345 ± 0.0002 h⁻¹
[1]; [13]
  IC50: > 50 µM
[3]; [14]
  IC50: > 50 µM

## O=C([O][Os][Cl])c1cccc(O)n1.c1ccc(-c2ccccc2)cc1 [Compound 2, [(η^6-bip)Os(6-OH-pico)Cl]]
[1]; [13]
  IC50: > 50 µM
[3]; [14]
  IC50: > 50 µM

## Cc1cccc(C(=O)[O][Os][Cl])n1.c1ccc(-c2ccccc2)cc1 [Compound 3, [(η^6-bip)Os(6-Me-pico)Cl]]
[4]; [15]
  Hydrolysis k/h^−1: 0.219 ± 0.005 h⁻¹
[4]; [12]
  Hydrolysis k/h^−1: 0.676 ± 0.039 h⁻¹
[5]; 4 mM NaCl
  % aqua adduct: 50%
[5]; 22.7 mM NaCl
  % aqua adduct: 60%
[5]; 100 mM NaCl
  % aqua adduct: 35%
[1]; [13]
  IC50: > 50 µM
[2]
  pKa* of the aqua adduct: 6.34
[6]; t = 10
  % 9EtG nucleobase adduct: 0%
[6]; t = 24 h
  % 9EtG nucleobase adduct: 30%
[6]; t = 72 h
  % 9EtG nucleobase adduct: 30%
[6]
  binding to 9EtG (nucleobase adduct formation): 30%
[7]; t = 10
  % 9EtA nucleobase adduct: 0%
[7]; t = 24 h
  % 9EtA nucleobase adduct: 9%
[7]; t = 72 h
  % 9EtA nucleobase adduct: 9%
[7]
  binding to 9EtA (nucleobase adduct formation): 9%
[8]; 4 mM NaCl
  % aqua adduct: 70%
[8]; 22.7 mM NaCl
  % aqua adduct: 49%
[8]; 100 mM NaCl
  % aqua adduct: 27%
[3]; [14]
  IC50: > 50 µM

## O=C([O][Os][Cl])c1cc(Cl)ccn1.c1ccc(-c2ccccc2)cc1 [Compound 4, [(η^6-bip)Os(4-Cl-pico)Cl]]
[4]; 5% MeOD-d4/95% D2O, pH* 2
  Extent of hydrolysis at equilibrium (aqua adduct): 100%
[4]; [15]
  Hydrolysis k/h^−1: 0.288 ± 0.001 h⁻¹
[4]; [12]
  Hydrolysis k/h^−1: 0.656 ± 0.032 h⁻¹
[1]
  Activity in A2780 cancer cell line: toxic
[1]; [13]
  IC50: 4.8 µM
[2]
  pKa* of the aqua adduct: 6.30
[6]; t = 10
  % 9EtG nucleobase adduct: 0%
[6]; t = 24 h
  % 9EtG nucleobase adduct: 59%
[6]; t = 72 h
  % 9EtG nucleobase adduct: 76%
[7]; t = 10
  % 9EtA nucleobase adduct: 0%
[7]; t = 24 h
  % 9EtA nucleobase adduct: 62%
[7]; t = 72 h
  % 9EtA nucleobase adduct: 71%
[3]; [14]
  IC50: 10 to 50 µM

## O=C(O)c1ccnc(C(=O)[O][Os][Cl])c1.c1ccc(-c2ccccc2)cc1 [Compound 5, [(η^6-bip)Os(4-CO2H-pico)Cl]]
[4]; 5% MeOD-d4/95% D2O, pH* 2
  Extent of hydrolysis at equilibrium (aqua adduct): 100%
[4]; [15]
  Hydrolysis k/h^−1: 0.158 ± 0.011 h⁻¹
[4]; [12]
  Hydrolysis k/h^−1: 0.384 ± 0.004 h⁻¹
[1]; [13]
  IC50: > 50 µM
[2]
  pKa* of the aqua adduct: 6.61
[6]; t = 10
  % 9EtG nucleobase adduct: 0%
[6]; t = 24 h
  % 9EtG nucleobase adduct: 100%
[6]; t = 72 h
  % 9EtG nucleobase adduct: 100%
[6]
  binding to 9EtG (nucleobase adduct formation): 100%
[7]; t = 10
  % 9EtA nucleobase adduct: 0%
[7]; t = 24 h
  % 9EtA nucleobase adduct: 100%
[7]; t = 72 h
  % 9EtA nucleobase adduct: 100%
[7]
  binding to 9EtA (nucleobase adduct formation): 100%
[3]; [14]
  IC50: > 50 µM

## Cc1cc(C)c(NC(=O)c2ccccn2)c(C)c1.Cc1ccc(C(C)C)cc1.F[P-](F)(F)(F)(F)F.[Cl][Os+] [Compound 9, [(η^6-p-cym)Os(N-2,4,6-trimethyl-Ph-picolinamide)Cl]PF6]
[4]
  Rate of hydrolysis: very slowly
[4]; Table 18, 310 K, 0.8 mM
  Hydrolysis k/h^−1: 0.16 ± 0.01 h⁻¹
[1]
  Activity in A2780 cancer cell line: inactive
[1]; [11]
  IC50: > 50 µM
[6]; t = 0.17 h
  +1 eq. 9-EtG (% adduct formation): 0%
[6]; t = 24 h
  +1 eq. 9-EtG (% adduct formation): 0%
[7]; t = 0.17 h
  +1 eq. 9-EtA (% adduct formation): 0%
[7]; t = 24 h
  +1 eq. 9-EtA (% adduct formation): 0%

## O=C(c1ccccn1)[N]([Os][Cl])c1ccccc1.c1ccc(-c2ccccc2)cc1 [Compound 10, [(η^6-bip)Os(N-Ph-picolinamide)Cl]PF6]
[4]; Table 18, 288 K, 0.8 mM
  Hydrolysis k/h^−1: ≧5.9 h^−1
[6]; t = 0.17 h
  +1 eq. 9-EtG (% adduct formation): 73%
[6]; t = 24 h
  +1 eq. 9-EtG (% adduct formation): 73%
[7]; t = 0.17 h
  +1 eq. 9-EtA (% adduct formation): 0%
[7]; t = 24 h
  +1 eq. 9-EtA (% adduct formation): 0%

## Cc1ccc(C(C)C)cc1.O=C1c2cccc[n+]2[Os-]([Cl])[N]1c1ccccc1[N+](=O)[O-] [Compound 11]
[4]; Table 18, 288 K, 0.8 mM
  Hydrolysis k/h^−1: ≧5.9 h^−1
[6]; t = 0.17 h
  +1 eq. 9-EtG (% adduct formation): 69%
[6]; t = 24 h
  +1 eq. 9-EtG (% adduct formation): 69%
[7]; t = 0.17 h
  +1 eq. 9-EtA (% adduct formation): 0%
[7]; t = 24 h
  +1 eq. 9-EtA (% adduct formation): 0%

## C1=CCC2=C(C1)Cc1ccccc1C2.F[P-](F)(F)(F)(F)F.NCCN.[Cl][Ru+] [HC11, reference compound]
[1]; [9]
  IC50: 0.5 µM
[2]
  pKa of water coordinated on hydrolysis (aqua adduct of complex): 8.01
[3]; [10]
  IC50: 0.5 µM

## CC(=O)C=C(C)[O][Ru][Cl].Cc1ccc(C(C)C)cc1 [MMS6, reference compound]
[1]; [9]
  IC50: 19 µM
[2]
  pKa of water coordinated on hydrolysis (aqua adduct of complex): 9.4
[3]; [10]
  IC50: > 100 µM

## Cc1ccc(C(C)C)cc1.NCC(=O)[O][Ru][Cl] [RF01, reference compound]
[1]; [9]
  IC50: > 100 µM
[2]
  pKa of water coordinated on hydrolysis (aqua adduct of complex): 8.65

## CC(N)C(=O)[O][Ru][Cl].Cc1ccc(C(C)C)cc1 [RF02(a), reference compound]
[1]; [9]
  IC50: > 100 µM

## Cc1ccc(C(C)C)cc1.NCCC(=O)[O][Ru][Cl] [RF11, reference compound]
[1]; [9]
  IC50: > 100 µM

## O=C([O][Ru][Cl])C1CCCCN1.c1ccc(-c2ccccc2)cc1 [RF16, reference compound]
[1]; [9]
  IC50: > 100 µM

## [(η^6-p-cym)Os(N-2,4-difluoride-Ph-picolinamide)Cl]PF6 [Compound 8]
[4]; Table 18, 288 K, 0.8 mM
  Hydrolysis k/h^−1: ≧5.9 h^−1
[1]
  Activity in A2780 cancer cell line: cytotoxic; also recorded: active
[1]; [11]
  IC50: 8.2 µM
[6]; t = 0.17 h
  +1 eq. 9-EtG (% adduct formation): 56%
[6]; t = 24 h
  +1 eq. 9-EtG (% adduct formation): 56%
[7]; t = 0.17 h
  +1 eq. 9-EtA (% adduct formation): 0%
[7]; t = 24 h
  +1 eq. 9-EtA (% adduct formation): 0%
[3]
  Activity in A549 cancer cell line: moderately cytotoxic
[3]; Example 6, read-out: IC50 in human lung A549 cancer cell line
  IC50: 10 to 50 µM

## [(η^6-p-cym)Os(O2C6H3CH3NCH3)Cl] [AFAP57]
[1]; [9]
  IC50: 40 µM
[2]
  pKa of water coordinated on hydrolysis (aqua adduct of complex): 8.31
[3]; [10]
  IC50: > 100 µM
